Measured values from patent US7001983B1, “Antipathogenic synthetic peptides and compositions comprising them” (priority 1997, dated 2006).
Values after ≈ are worked out from the molar mass of the structure shown. Numbered stars: 1 amine (or outer) side, 2 acyl side, 3 side chain; on linkers, the order of the positions; unused ones are H or OH. Square brackets hold non-standard residues; d marks the D form. Peptide text beside a SMILES is read from it. Ethylenediamine = C(CN[*:2])N[*:1]

Assays:
[1] = Membrane permeation, diffusion potential assay; details: dissipation of diffusion potential
Protocol: (xi) Membrane permeation induced by the peptides. Membrane permeation was assessed utilizing the diffusion potential assay (Loew et al., 1983; Sims et al., 1974) as previously described (Shai et al., 1991). In a typical experiment, in a glass tube, 4 μl of a liposomes suspension (final phospholipids concentration of 33 μM), in a K^+ containing buffer (50 mM K2SO4, 25 mM HEPES-SO4^−2, pH 6.8), was diluted in 1 ml of an isotonic K^+ free buffer (50 mM Na2SO4, 25 mM HEPES-SO4^−2, pH 6.8), and the fluorescent, potential-sensitive dye diS-C2-5 was then added. Valinomycin (1 μl of 10^−7 M) was added to the suspension in order to slowly create a negative diffusion potential inside the vesicles, which led to a quenching of the dye's fluorescence. Once the fluorescence had stabilized, which took 3–10 minutes, peptides were added. The subsequent dissipation of the diffusion potential, as reflected by an increase in fluorescence, was monitored on a Perkin Elmer LS-50B spectrofluorometer, with the excitation set at 620 nm, the emission at 670 nm, and the gain adjusted to 100%. The percentage of fluorescence recovery, Ft, was defined as: Ft=(It−I0/If−I0)×100 where I0=the initial fluorescence, If=the total fluorescence observed before the addition of valinomycin, and It=the fluorescence observed after adding the peptide at time t.
2.5.1 Membrane permeability induced by the peptides. […]

[2] = test system: Pseudomonas aeruginosa ATCC 27853; details: 100% inhibition of growth after 18–20 h
Protocol: (viii) Antibacterial activity of the peptides.
Antibacterial activity of the mixtures was determined as described in Experimental procedures, section (xii).

[3] = phosphatidylglycerol/phosphatidylcholine; Beschiaschvili and Seelig, 1990; cited from earlier work
[4] = test system: Micrococcus Iuteus ATCC 9341; assay: Antibacterial activity (MIC), growth inhibition in LB medium; format: cell-based, Micrococcus luteus; details: 100% inhibition of growth after 18–20 h
Protocol: (§1) (viii) Antibacterial activity of the peptides. The antibacterial activity of the diastereomers was examined in sterile 96-well plates (Nunc F96 microtiter plates) in a final volume of 100 μL as follows: Aliquots (50 μl) of a suspension containing bacteria at a concentration of 10^6 Colony-Forming Units (CFU)/ml LB (Lauria broth) medium were added to 50 μL of water or 66% pooled normal human serum in PBS, containing the peptide in 2-fold serial dilutions. Growth inhibition was determined by measuring the absorbance at 492 nm with a Microplate autoreader E1309 (Bio-tek Instruments), following incubation for 18–20 h at 37° C. […] The bacteria used were: Escherichia coli D21, Pseudomonas aeruginosa ATCC 27853, Acinetobacter calcoaceticus Ac11, Salmonella typhimurium LT2, Bacillus megaterium Bm11, Micrococcus Iuteus ATCC 9341, Bacillus subtilis ATCC 6051.

[5] = CD spectroscopy, α-helix content; format: physicochemical; details: CD in 40% TFE
Protocol: (vii) CD Spectroscopy. The CD spectra of the peptides were measured with a Jasco J-500A spectropolarimeter after calibrating the instrument with (+)-10-camphorsulfonic acid. The spectra were scanned at 23° C. in a capped, quartz optical cell with a 0.5 mm path length. Spectra were obtained at wavelengths of 250 to 190 nm. Eight scans were taken for each peptide at a scan rate of 20 nm/min. […] Fractional helicities (Greenfield and Fasman, 1969; Wu et al., 1981) were calculated as follows: [formula] where [θ]222 is the experimentally-observed mean residue ellipticity at 222 nm, and the values for [θ]^0222 and [θ]^100222, which correspond to 0% and 100% helix content at 222 nm, are estimated to be 2000 and 32000 deg·cm^2/dmole,
1.2 Determination of the secondary structure of the peptides. The secondary structures of the peptides 1, 8, 12, 14, were evaluated from their CD spectra in 40% TFE, a solvent that strongly promotes an α-helical structure, as described in Experimental Procedures, section (vii), and in PBS (35 mM phosphate buffer/0.15 M NaCl, pH 7.0).

[6] = test system: human red blood cells (hRBC); assay: Hemolysis of human red blood cells; format: cell-based; details: for % hemolysis at 50 μM peptide: hRBC, 30 min at 37° C.
Outline: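 Washed fresh erythrocytes at 5% v/v final in PBS pH 7.3 exposed to peptide 30 min at 37° C with agitation. Hemoglobin release read as supernatant absorbance at 540 nm after centrifugation, scaled between PBS (0%) and 1% Triton (100%).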

[7] = test system: Acinetobacter calcoaceticus Ac11; format: cell-based; details: 100% inhibition of growth after 18–20 h
Escherichia coli D21 = format: cell-based; details: 100% inhibition of growth after 18–20 h
[8] = test system: Salmonella typhimurium LT2; assay: Antibacterial activity (MIC), growth inhibition in LB medium; format: cell-based; details: 100% inhibition of growth after 18–20 h
Protocol: as §1

Bacillus megaterium Bm11 = format: cell-based; details: 100% inhibition of growth after 18–20 h
[9] = test system: Bacillus subtilis ATCC 6051; format: cell-based; details: 100% inhibition of growth after 18–20 h
[10] = test system: Leishmania mexicana NR strain promastigotes; assay: Anti-Leishmania activity, counting living promastigotes; format: cell-based; details: 100% death after 24 h of incubation
Protocol: The melittin-derived diastereomer peptide 20 (see Example 2 above) and the Leu/Lys diastereomer peptide 23 (see Example 3 above) were tested against Leishmania. Promastigotes of the Leishmania mexicana NR strain to be assayed were cultured at 27° C. in RPMI 1640 medium supplemented with 10% fetal bovine serum. Parasite were harvested by centrifugation at 1200×g for 10 min at 4° C. and washed twice with PBS (50 mM sodium phosphate, 150 mM NaCl, pH 7). The washed promastigotes were counted in a hemocytometer and adjusted to 1×10^6 parasites/ml. Aliquotes of this suspension were assayed in a final volume of 100 μl by counting living (motile) cells after 24 h of incubation at 26° C. in the absence or presence of various concentrations of the diastereomers.

Sendai virus (Z strain) = details: no release of hemoglobin after incubation 37° C. 60 min
Protocol: Sendai virus (Z strain) was grown in the allantoic sac of 10–11 day old embryonated chicken eggs, harvested 48 h after injection and purified. The virus was resuspended in buffer composed of 160 mM NaCl, 20 mM tricine, pH 7.4, and stored at −70° C. Virus haemagglutinating activity was measured in haemagglutinating units (HAU). One microliter contained ˜60000 HAU. Fresh human blood was obtained from a blood bank and stored for up to 1 month at 4° C. Prior to use, erythrocytes were washed twice with PBS pH 7.2, and diluted to the desired concentration (% v/v) with the same buffer. Virions, erythrocytes and peptides were mixed in different orders of addition and various amounts. The final incubation was always at 37° C. for 60 min. followed by centrifugation at 5700 g for 10 min to remove intact cells. In all cases duplicate samples were used and two aliquots were taken from the supernatant of each sample to two wells of a 96-well plate. The amount of hemoglobin release was monitored by measuring the absorbance of the wells with the ELISA, plate reader at 540 nm. Antiviral activity was expressed as the minimal inhibitory concentration (MIC), the concentration at which no release of hemoglobin was observed after incubation.

[11] = test system: human red blood cells (hRBC); details: Oren and Shai, 1996; cited from earlier work

Row | Compound | Minimal Inhibitory Concentration P. aeruginosa (ATCC 27853) [2] [µM] | Minimal Inhibitory Concentration M. luteus (ATCC 9341) [4] [µM] | % hemolysis at 50 μM peptide [6] [%] | Minimal Inhibitory Concentration A. calcoaceticus (Ac11) [7] [µM] | Minimal Inhibitory Concentration E. coli (D21) (Escherichia coli D21) [µM] | Minimal Inhibitory Concentration S. typhimurium (LT2) [8] [µM] | Minimal Inhibitory Concentration B. megaterium (Bm11) (Bacillus megaterium Bm11) [µM] | MIC Leishmania mexicana [10] [µM] | further results
1 | CC[C@H](C)[C@H](NC(=O)CN)C(=O)NCC(=O)N[C@@H](C)C(=O)N[C@H](C(=O)N[C@@H](CC(C)C)C(=O)N[C@@H](CCCCN)C(=O)N[C@H](C(=O)N[C@@H](CC(C)C)C(=O)N[C@H](C(=O)N[C@H](C(=O)NCC(=O)N[C@@H](CC(C)C)C(=O)N1CCC[C@H]1C(=O)N[C@@H](C)C(=O)N[C@@H](CC(C)C)C(=O)N[C@H](C(=O)N[C@@H](CO)C(=O)N[C@@H](Cc1c[nH]c2ccccc12)C(=O)N[C@H](C(=O)N[C@@H](CCCCN)C(=O)N[C@@H](CCCNC(=N)N)C(=O)N[C@@H](CCCCN)C(=O)N[C@@H](CCCNC(=N)N)C(=O)N[C@@H](CCC(N)=O)C(=O)N[C@@H](CCC(N)=O)C(N)=O)[C@@H](C)CC)[C@@H](C)CC)[C@@H](C)O)[C@@H](C)O)C(C)C)C(C)C [Melittin] | 25 | 0.4 | – | – | – | – | – | – | membrane permeating activity with PC (zwitterionic) vesicles [1]: highly active; partition coefficient reported for melittin binding [3]: 4.5±0.6×10^4 M^−1; α-helix content [5]: 73%
2 | CC[C@H](C)[C@H](NC(=O)[C@H](CCCCN)NC(=O)[C@H]1CCCN1C(=O)[C@@H](NC(=O)[C@H](CC(C)C)NC(=O)[C@H](C)NC(=O)[C@H](Cc1ccccc1)NC(=O)[C@H](Cc1ccccc1)NC(=O)CN)[C@@H](C)CC)C(=O)N[C@H](C(=O)N[C@@H](CO)C(=O)NCCN)[C@@H](C)CC [Peptide 7, [D]P^7-[1-11]-TApar] (H-GFFALI[dP]KIIS-Ethylenediamine; N-terminus assumed) | >120 | – | 0 | >120 | >120 | >120 | 30 | – | –
3 | CC[C@H](C)[C@H](NC(=O)[C@H](CCCCN)NC(=O)[C@@H]1CCCN1C(=O)[C@@H](NC(=O)[C@H](CC(C)C)NC(=O)[C@H](C)NC(=O)[C@H](Cc1ccccc1)NC(=O)[C@H](Cc1ccccc1)NC(=O)CN)[C@@H](C)CC)C(=O)N[C@H](C(=O)N[C@@H](CO)C(=O)N[C@@H](CO)C(=O)N1CCC[C@H]1C(=O)N[C@@H](CC(C)C)C(=O)N[C@@H](Cc1ccccc1)C(=O)N[C@@H](CCCCN)C(=O)N[C@H](C(=O)N[C@@H](CC(C)C)C(=O)N[C@@H](CC(C)C)C(=O)N[C@@H](CO)C(=O)N[C@@H](C)C(=O)N[C@H](C(=O)NCC(=O)N[C@@H](CO)C(=O)N[C@@H](C)C(=O)N[C@@H](CC(C)C)C(=O)N[C@@H](CO)C(=O)N[C@@H](CO)C(=O)N[C@@H](CO)C(=O)NCC(=O)NCC(=O)N[C@@H](CCC(N)=O)C(=O)N[C@@H](CCC(=O)NCCN)C(=O)NCCN)C(C)C)[C@@H](C)O)[C@@H](C)CC [Peptide 8, TApar] | 8 | 5 | 100 | 3 | 3 | 15 | 0.8 | – | Minimal Inhibitory Concentration B. subtilis (ATCC 6051) [9]: 1.5 µM
4 | CC[C@@H](C)[C@@H](NC(=O)[C@H](CC(C)C)NC(=O)[C@H](C)NC(=O)[C@@H]1CCCN1C(=O)[C@H](CC(C)C)NC(=O)CNC(=O)[C@@H](NC(=O)[C@@H](NC(=O)[C@H](CC(C)C)NC(=O)[C@H](NC(=O)[C@H](CCCCN)NC(=O)[C@H](CC(C)C)NC(=O)[C@H](NC(=O)[C@H](C)NC(=O)CNC(=O)[C@@H](NC(=O)CN)[C@@H](C)CC)C(C)C)C(C)C)[C@@H](C)O)[C@@H](C)O)C(=O)N[C@@H](CO)C(=O)N[C@@H](Cc1c[nH]c2ccccc12)C(=O)N[C@H](C(=O)N[C@H](CCCCN)C(=O)N[C@@H](CCCNC(=N)N)C(=O)NCCN)[C@@H](C)CC [Peptide 20, [D]-V^5V^8I^17K^21-[1-22]-TAmel] | – | 29 | 0 | 7 | 8 | – | 0.8 | 32 (≈ 75.2 µg/mL) | –
5 | CC(C)C[C@H](NC(=O)[C@H](CCCCN)NC(=O)[C@@H](CC(C)C)NC(=O)[C@@H](CC(C)C)NC(=O)[C@H](CC(C)C)NC(=O)[C@@H](N)CCCCN)C(=O)N[C@@H](CC(C)C)C(=O)N[C@H](CC(C)C)C(=O)N[C@@H](CCCCN)C(=O)N[C@H](CC(C)C)C(=O)N[C@@H](CC(C)C)C(=O)N[C@@H](CCCCN)C(N)=O [Peptide 23, [D]-L^3,4,8,10-K4L8] (H-KL[dL][dL]KLL[dL]K[dL]LK-NH2) | – | – | – | – | – | – | – | 17 (≈ 24.4 µg/mL) | hemolytic activity in comparison to melittin (fold less) [6]: > 100 fold; % hemolysis at 100 μM ([6]; red cells of human, 100): 0%; MIC Sendai virus (Sendai virus (Z strain)): 80 µM (≈ 115 µg/mL)
6 | Pardaxin | – | – | – | – | – | – | – | – | hemolytic activity towards human erythrocytes relative to melittin (fold less) [11]: 40–100 fold
